These results are taken from PubChem BioAssay (NCI).

Some test systems named below: HCC-2998 colon; M14 melanoma; 786-0 renal; CAKI-1 renal; NCI-H522 lung; NCI-H460 lung; CCRF-CEM leukemia; SNB-75 CNS; OVCAR-8 ovarian.
What all share (assay): NCI tumour cell line growth inhibition, 48 h

The structures appear in SMILES notation.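 48-hour exposure; five concentrations; linearly interpolated endpoints. Abbreviation: GI50, concentration required for 50% inhibition of growth. TGI: concentration producing complete growth inhibition.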

Consider `CC(C)Oc1ccc2cc(-c3nn(CC4CCNCC4)c4ncnc(N)c34)ccc2c1`, for which the GI50 is 9.53 µM in the assay on HCC-2998 colon; 2.05 µM in the assay with M14 melanoma; 11 µM in the assay with 786-0 renal; 10.9 µM in the assay on CAKI-1 renal; 11 µM in the assay with NCI-H522 lung; 14.9 µM with NCI-H460 lung. Besides, the GI50 in the assay with CCRF-CEM leukemia is 3.98 µM; in the assay on SNB-75 CNS it was 1.09 µM. In addition, the TGI worked out at 24.6 µM in the assay with HCC-2998 colon; 4.68 µM in the assay with M14 melanoma; 24.4 µM in the assay with 786-0 renal; 22.9 µM in the assay on CAKI-1 renal; 25.4 µM with NCI-H522 lung; 28.5 µM in the assay with NCI-H460 lung. The figures for the TGI in the assay on CCRF-CEM leukemia and in the assay with SNB-75 CNS were 16.9 µM and 15.2 µM, respectively.

For `COc1cc(-n2cc(-c3ccc(F)cc3)[nH]c2=O)cc(OC)c1OC`, the GI50 is above 100 µM with HCC-2998 colon; above 100 µM in the assay on 786-0 renal; above 100 µM in the assay with CAKI-1 renal; above 100 µM in the assay on NCI-H522 lung; above 100 µM in the assay on NCI-H460 lung; 31.5 µM with SNB-75 CNS. The GI50 with OVCAR-8 ovarian was above 100 µM. The TGI in the assay on HCC-2998 colon was above 100 µM; in the assay with 786-0 renal, above 100 µM; in the assay on CAKI-1 renal, above 100 µM; in the assay with NCI-H522 lung, above 100 µM; with NCI-H460 lung, above 100 µM; in the assay with SNB-75 CNS, 86.3 µM. Also, the TGI in the assay with OVCAR-8 ovarian is above 100 µM.

As to `CCCC(=O)Nc1cc2c3c(c1)CCCN3CCC2`, the TGI in the assay on HCC-2998 colon, in the assay with M14 melanoma, with 786-0 renal, with CAKI-1 renal, in the assay on NCI-H522 lung and in the assay with CCRF-CEM leukemia was above 10 µM in each case. The TGI in the assay with SNB-75 CNS and in the assay with OVCAR-8 ovarian was above 10 µM in each case.

Turning to `C=CCCCCOc1ccccc1-c1cnc(OCCCCC=C)n1C`, the GI50 in the assay on HCC-2998 colon was 6.57 µM; in the assay on M14 melanoma it was 2.88 µM; in the assay on 786-0 renal, 5.29 µM; in the assay on CAKI-1 renal it was 4.36 µM; with NCI-H522 lung it was 2.59 µM; with CCRF-CEM leukemia it was 4.27 µM. Further, the GI50 is 2.52 µM in the assay on SNB-75 CNS and 4.23 µM in the assay on OVCAR-8 ovarian. The TGI with HCC-2998 colon was found to be 21.3 µM; in the assay on M14 melanoma it was 14.6 µM; with 786-0 renal it was 21.3 µM; in the assay on CAKI-1 renal, 23.8 µM; in the assay on NCI-H522 lung, 6.72 µM; with CCRF-CEM leukemia, 20.4 µM. Further, the TGI in the assay on SNB-75 CNS came out at 11.6 µM; in the assay with OVCAR-8 ovarian, 17.2 µM.

`COc1ccc(NC(=O)/C(Cc2cc(=O)oc3cc(O)ccc23)=N\NC(C)(C)C)c(OC)c1`: the TGI in the assay with HCC-2998 colon, in the assay on M14 melanoma, in the assay on 786-0 renal, with CAKI-1 renal, in the assay with NCI-H522 lung and in the assay on NCI-H460 lung was above 100 µM in each case. Besides, the TGI in the assay on CCRF-CEM leukemia and with OVCAR-8 ovarian was above 100 µM throughout.

As to `CO/N=C(\COc1ccc2c(c1)oc(=O)c1cc(OC)ccc12)c1ccc(OC)cc1`, the GI50 in the assay on HCC-2998 colon, in the assay on M14 melanoma, with 786-0 renal, in the assay on CAKI-1 renal, in the assay on NCI-H522 lung and in the assay on NCI-H460 lung was above 100 µM each time. The GI50 with CCRF-CEM leukemia and in the assay on OVCAR-8 ovarian was above 100 µM in each case. The TGI in the assay with HCC-2998 colon, in the assay with M14 melanoma, with 786-0 renal, in the assay on CAKI-1 renal, with NCI-H522 lung and in the assay on NCI-H460 lung was above 100 µM each time. Moreover, the TGI in the assay with CCRF-CEM leukemia and in the assay on OVCAR-8 ovarian was above 100 µM each time.

Turning to `COc1cc2c(cc1OCCCNC(=O)c1cccc3c(=O)c4ccccc4[nH]c13)N=C[C@@H]1CCCN1C2=O`, the GI50 in the assay on HCC-2998 colon was below 0.0103 µM; with M14 melanoma, below 0.01 µM; in the assay with 786-0 renal, below 0.01 µM; in the assay on CAKI-1 renal, 0.116 µM; with CCRF-CEM leukemia, below 0.01 µM; in the assay on OVCAR-8 ovarian, 0.01 µM. Further, the TGI was 0.0321 µM with HCC-2998 colon; below 0.01 µM in the assay with M14 melanoma; 24 µM in the assay on 786-0 renal; 0.571 µM in the assay on CAKI-1 renal; above 33.6 µM with NCI-H522 lung; 3.76 µM in the assay with NCI-H460 lung.

In the case of `COc1cc(-c2cc(-c3cc4c([nH]c5ccccc54)c(-c4cc(OC)c(OC)c(OC)c4)n3)cc(-c3ccccc3)n2)cc(OC)c1OC`, the GI50 with HCC-2998 colon is 7.3 µM; with M14 melanoma it was 3.49 µM; with 786-0 renal, 7.15 µM; in the assay with CAKI-1 renal, 5.67 µM; with NCI-H522 lung, 2.32 µM; in the assay with NCI-H460 lung, 3.37 µM. For the same molecule, the GI50 was 3.6 µM with CCRF-CEM leukemia and 4.01 µM in the assay with OVCAR-8 ovarian. Also, the TGI in the assay with HCC-2998 colon is above 100 µM; in the assay on M14 melanoma, above 100 µM; in the assay with 786-0 renal it was above 100 µM; in the assay with CAKI-1 renal it was above 100 µM; in the assay on NCI-H522 lung, 8.01 µM; in the assay on NCI-H460 lung, 18.1 µM. Moreover, the TGI with CCRF-CEM leukemia is above 100 µM; in the assay with OVCAR-8 ovarian, 43.4 µM.

In the case of `[Cl][Hg][c]1cc[c]([Hg][Cl])o1`, the GI50 with HCC-2998 colon is 17 µM; in the assay with M14 melanoma, 2.53 µM; in the assay on 786-0 renal, 4.5 µM; with NCI-H522 lung it was 0.367 µM; with NCI-H460 lung, 10 µM; with CCRF-CEM leukemia it was 0.295 µM. Further, the GI50 was 3.78 µM in the assay with SNB-75 CNS and 3.39 µM in the assay on OVCAR-8 ovarian. Also, the TGI was 42.9 µM in the assay with HCC-2998 colon; 12 µM with M14 melanoma; 15.1 µM in the assay on 786-0 renal; 1.69 µM with NCI-H522 lung; 34.1 µM in the assay on NCI-H460 lung; 8.75 µM in the assay on CCRF-CEM leukemia. Also, the figures for the TGI in the assay on SNB-75 CNS and in the assay on OVCAR-8 ovarian were 19.6 µM and 34.6 µM, respectively.

For the molecule `Cc1cc(N(CCC#N)CCC#N)ccc1N=Nc1ccc(C(=O)O)cc1`, the TGI with HCC-2998 colon, in the assay on M14 melanoma, with 786-0 renal, with CAKI-1 renal, with NCI-H522 lung and with SNB-75 CNS was above 100 µM throughout. The molecule further yielded a TGI in the assay on OVCAR-8 ovarian above 100 µM.

As for `Oc1cccnc1[Se]`, the TGI is 67.9 µM with M14 melanoma; 31.7 µM with 786-0 renal; above 100 µM with CAKI-1 renal; above 100 µM with NCI-H522 lung; above 100 µM with NCI-H460 lung; above 100 µM with CCRF-CEM leukemia. Moreover, the TGI in the assay on SNB-75 CNS and in the assay on OVCAR-8 ovarian was above 100 µM in each case.
